Where a SMILES comes first, the peptide text is derived from it. Where no end group is shown, it is not given here. [ ]: non-standard residue; d: D form. The star is where a group is joined. Orn = NCCC[C@H](N)C(=O)O; Hexanoyl = CCCCCC(=O)*; Aib = CC(C)(N)C(=O)O Some results are limits rather than exact numbers.

Data set [1] addresses T1, human VPAC2 (Homo sapiens, UniProt P41587).
T1 construct: expressed in transfected cells
T1 sequence (P41587 24-438): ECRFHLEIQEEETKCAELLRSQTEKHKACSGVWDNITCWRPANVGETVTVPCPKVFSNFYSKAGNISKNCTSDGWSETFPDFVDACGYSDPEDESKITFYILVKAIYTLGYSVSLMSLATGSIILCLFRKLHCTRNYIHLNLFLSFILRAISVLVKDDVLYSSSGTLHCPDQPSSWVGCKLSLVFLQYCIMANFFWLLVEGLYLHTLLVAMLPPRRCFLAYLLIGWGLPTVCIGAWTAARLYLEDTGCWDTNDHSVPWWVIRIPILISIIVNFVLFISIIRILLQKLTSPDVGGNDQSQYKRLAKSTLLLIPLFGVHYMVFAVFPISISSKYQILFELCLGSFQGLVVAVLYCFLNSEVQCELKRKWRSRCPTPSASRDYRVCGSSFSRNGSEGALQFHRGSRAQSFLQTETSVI
Kind of data set: Alpha screen cAMP in vitro potency, human VPAC2 receptor. The settings on record: cAMP generation; single result from two analyses performed in a single run; read-out: Human VPAC2 Receptor: Alpha Screen EC50. Type of data set: cell-based. The procedure, abridged: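 This followed a 60 min stimulation of 50,000 enzyme-free-dissociated cells per point with acceptor beads in stimulation buffer.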

The target of data set [2] is T1, human VPAC2. Kind of data set: Filter binding assay, membranes of stable VPAC2 cell line, 125I-labeled VIP tracer (Table 2). The following applies: read-out: Human VPAC2 Receptor Binding. The procedure, abridged:
(§1)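 Scintillation counting of filter-retained radioligand gave the read-out. Compounds competed with the labelled tracer (about 40000 cpm) for 2.5 μg membranes during 1 hour of shaking in HEPES pH 7.4 buffer containing 0.5% BSA.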

A short description of data set [3]: Rat serum stability studies (remaining active peptide by DiscoveRx cAMP on CHO-VPAC2 cells). Type of data set: in vitro ADME. The gist of the method:
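Rat serum, 18 h: +aprotinin aliquot at 4° C, no-aprotinin aliquot at 37° C. Then 30 min RT step, supernatant removed, 1 h shaking at 300 rpm. DiscoveRx cAMP kit on CHO-VPAC2; EC50 from cAMP data vs standards.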

The target in the next data set is T2, human VPAC1 (Homo sapiens, UniProt P32241).
T2 sequence (P32241 31-457): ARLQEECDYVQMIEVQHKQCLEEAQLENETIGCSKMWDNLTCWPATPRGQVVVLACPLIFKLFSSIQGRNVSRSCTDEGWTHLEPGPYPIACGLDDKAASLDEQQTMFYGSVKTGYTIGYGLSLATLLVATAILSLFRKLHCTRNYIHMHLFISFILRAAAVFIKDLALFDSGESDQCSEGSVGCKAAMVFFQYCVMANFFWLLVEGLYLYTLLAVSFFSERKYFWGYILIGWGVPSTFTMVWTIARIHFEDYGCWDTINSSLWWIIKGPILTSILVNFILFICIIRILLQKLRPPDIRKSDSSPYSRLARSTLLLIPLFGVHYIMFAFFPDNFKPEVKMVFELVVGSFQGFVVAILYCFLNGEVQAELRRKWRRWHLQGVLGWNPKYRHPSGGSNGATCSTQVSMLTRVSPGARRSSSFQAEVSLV
Description: Filter binding assay, membranes of cells transiently transfected with human VPAC1, 125I-labeled VIP tracer (Table 2). The following applies: read-out: Human VPAC1 Receptor Binding. Also on record: expressed in transfected cells. The gist of the method: as §1

A further data set has as its target T3, human PAC1 (Homo sapiens, UniProt P41586).
T3 sequence (P41586 21-468): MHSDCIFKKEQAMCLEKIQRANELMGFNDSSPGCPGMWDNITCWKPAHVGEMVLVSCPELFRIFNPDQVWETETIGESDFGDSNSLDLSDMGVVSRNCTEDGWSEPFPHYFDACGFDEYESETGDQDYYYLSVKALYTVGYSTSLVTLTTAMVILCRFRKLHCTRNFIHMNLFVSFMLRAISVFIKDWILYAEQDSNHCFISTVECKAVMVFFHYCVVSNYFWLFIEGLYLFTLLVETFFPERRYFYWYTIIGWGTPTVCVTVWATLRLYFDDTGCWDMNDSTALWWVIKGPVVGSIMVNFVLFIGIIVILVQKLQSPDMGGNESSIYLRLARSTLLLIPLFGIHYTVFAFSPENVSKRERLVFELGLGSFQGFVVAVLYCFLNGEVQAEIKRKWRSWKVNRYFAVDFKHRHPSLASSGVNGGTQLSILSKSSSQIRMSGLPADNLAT
Description: Filter binding assay, membranes of cells transiently transfected with human PAC1, 125I-labeled PACAP-27 tracer (Table 2). Also noted: expressed in transfected cells. The settings on record: read-out: Human PAC1 Receptor Binding. The gist of the method: as §1

In general, EC50 refers to the concentration giving half of the maximal effect. As to “Hexanoyl-HSDAVFTDNYTRLRKQVAAKRYLQSIKNKRYGGPSSGAPPPS [Agonist P182]”, the EC50 at human VPAC2 [1] is 0.29 nM. Moreover, the IC50 on human VPAC2 [2] was found to be 0.17 nM; on human VPAC1, 205 nM; at human PAC1 it was 429 nM. The “Rat Serum Stability (estimated purity in % after 18 hours)” value in data set [3] was 0.15%.

On to “Hexanoyl-HSDAVFTDNYTRLAKQVAAKKYLQSIKNKRYGGPSSGAPPPS [Agonist P173]”, for which the EC50 at human VPAC2 [1] was found to be 0.25 nM. Further, the values for the IC50 at human VPAC2 [2], on human VPAC1 and at human PAC1 were 0.55 nM, 1790 nM and 756 nM, respectively. Further, the “Rat Serum Stability (estimated purity in % after 18 hours)” value in data set [3] was 1.04%.

For the compound “Hexanoyl-HSDAVFTDNYTRLRK(Ac)QVAAKK(Ac)YLQSIKNKRYGGPSSGAPPPS [Agonist P194]”, at human VPAC2 [1], the half-maximal effective concentration (EC50) came out at 0.13 nM. The values for the IC50 at human VPAC2 [2], on human VPAC1 and at human PAC1 were 0.28 nM, 173 nM and 626 nM, respectively. Further, the “Rat Serum Stability (estimated purity in % after 18 hours)” value in data set [3] was 1.11%.

As to “Hexanoyl-HSDAVFTDNYTRL[Aib]KQLAA[Aib]KYLQSIKNKRYGGPSSGAPPPS [Agonist P240]”, the EC50 on human VPAC2 [1] came out at 0.51 nM. Also, the figures for the IC50 on human VPAC2 [2], on human VPAC1 and at human PAC1 were 6.08 nM, greater than 3000 nM and greater than 25000 nM, respectively. For the same compound, in data set [3], the “Rat Serum Stability (Estimated purity in % after 72 hours)” value is on record as 10.4%. In addition, the “Rat Serum Stability (estimated purity in % after 18 hours)” value in data set [3] is listed as 43.87%.

As to “Hexanoyl-HSDAVFTDNYTRLR[Aib]QVAAVKYLQSIKNKRYGGPSSGAPPPS [Agonist P262]”, the EC50 at human VPAC2 [1] turned out to be 0.24 nM. The IC50 on human VPAC2 [2] was 0.61 nM; on human VPAC1 it was greater than 3000 nM; on human PAC1, greater than 25000 nM. Besides, in data set [3], the “Rat Serum Stability (estimated purity in % after 18 hours)” value is reported as 10.14%.

As to “Hexanoyl-HSDAVFTDNYTRLRAQVAAQKYLQSIKNKRYGGPSSGAPPPS [Agonist P138]”, the EC50 on human VPAC2 [1] came to 0.45 nM. The IC50 amounted to 1.01 nM at human VPAC2 [2], 5.28 nM at human VPAC1 and 1110 nM at human PAC1. Also, the “Rat Serum Stability (estimated purity in % after 18 hours)” value in data set [3] is given as 0.48%.

As for “Hexanoyl-HSDAVFTDNYTRLRKQLAAKKYLQSIKNKRYGGPSSGAPPPS [Agonist P290]”, on human VPAC2 [1], the EC50 came to 0.22 nM. In addition, the IC50 at human VPAC2 [2] was determined as 0.27 nM; on human VPAC1, 221 nM; on human PAC1, 209 nM. Moreover, the “Rat Serum Stability (estimated purity in % after 18 hours)” value in data set [3] is 0.11%.

Take `CCCCCC(=O)N[C@@H](Cc1c[nH]cn1)C(=O)N[C@@H](CO)C(=O)N[C@@H](CC(=O)O)C(=O)N[C@@H](C)C(=O)N[C@H](C(=O)N[C@@H](Cc1ccccc1)C(=O)N[C@H](C(=O)N[C@@H](CC(=O)O)C(=O)N[C@@H](CCC(N)=O)C(=O)N[C@@H](Cc1ccc(O)cc1)C(=O)N[C@H](C(=O)N[C@@H](CCCNC(=N)N)C(=O)N[C@@H](CC(C)C)C(=O)N[C@@H](CCCNC(=N)N)C(=O)N[C@@H](CCCNC(=N)N)C(=O)N[C@@H](CCC(N)=O)C(=O)N[C@H](C(=O)N[C@@H](C)C(=O)N[C@@H](C)C(=O)N[C@@H](CCCNC(=N)N)C(=O)N[C@@H](CCCCN)C(=O)N[C@@H](Cc1ccc(O)cc1)C(=O)N[C@@H](CC(C)C)C(=O)N[C@@H](CCC(N)=O)C(=O)N[C@@H](CO)C(=O)N[C@H](C(=O)N[C@@H](CCCNC(=N)N)C(=O)N[C@@H](CCC(N)=O)C(=O)NCC(=O)NCC(=O)N1CCC[C@H]1C(=O)N[C@@H](CO)C(=O)N[C@@H](CO)C(=O)NCC(=O)N[C@@H](C)C(=O)N1CCC[C@H]1C(=O)N1CCC[C@H]1C(=O)N1CCC[C@H]1C(=O)N[C@@H](CO)C(=O)O)[C@@H](C)CC)C(C)C)[C@@H](C)O)[C@@H](C)O)C(C)C` [Agonist P220] (Hexanoyl-HSDAVFTDQYTRLRRQVAARKYLQSIRQGGPSSGAPPPS-OH; C-terminus assumed): the EC50 at human VPAC2 [1] is 0.12 nM. Also, the IC50 was found to be 0.25 nM on human VPAC2 [2], 5.86 nM at human VPAC1 and 849 nM on human PAC1. Besides, the “Rat Serum Stability (estimated purity in % after 18 hours)” value in data set [3] is 0.08%.

For the compound “Hexanoyl-HSDAVFTDNYTRLR[Orn]QVAAKKYLQSIKNKRYGGPSSGAPPPS [Agonist P307]”, at human VPAC2 [1], the EC50 is 0.32 nM. Besides, the IC50 on human VPAC2 [2] turned out to be 0.28 nM; on human VPAC1, 274 nM; on human PAC1 it was 293 nM. Further, in data set [3], the “Rat Serum Stability (estimated purity in % after 18 hours)” value was 0.32%.

Values taken from US20080026996A1, “Selective Vpac2 Receptor Reptide Agonists” (ELI LILLY AND COMPANY, priority 2004, published 2008).
